Measured values taken from patent publication US8304453B2, “Composition comprising at least one alkanolamide to inhibit migration of langerhans cells and uses therof” (Laboratoires Expanscience, priority 2001, dated 2012).

Experiments:
dendritic cells [1] = experiment: Migration of dendritic cells to draining ganglions in mouse sensitised by FITC hapten (AK100 ± LU105, Example 4); type: in vivo
Description: FITC (Fluoresceine isothiocyanate, Sigma, St Louis, Mo.) was extemporaneously diluted in an acetone mix (dibutylphthalate (1:1)).
Alkanolamide AK100 and LU105 (LU 105 is an MMP inhibitor, corresponding to a peptide extract of white lupin marketed by the Expanscience Company under the brand name Actimp (193®) were supplied by “Laboratoires Expanscience” and formulated alone or association with each other in an inert vehicle compatible with a topical application (alkanolamide AK100 (0.1%)± LU105 (2%)). The different formulations were applied on the ears of mice twice per day for 4 consecutive days. 1.5% of FITC was applied on both ears (one treated and the other not treated (Control)) three hours after the last application.
The effect of the two molecules was evaluated in vivo in the mouse. 1.5% FITC (2×5 μl) was applied on the skin of both ears. […] The cells were then centrifuged for 10 minutes at 600×g (m×s^−2) on a metrizamide gradient (14.5% in RPMI 1640; 7.5% SVF) The interface cells were retrieved, rinsed and then marked with an anti-CDS86 PE-conjugated, biot-MHC CLII mAbs AC plus streptavidine-Cya (PharMingen) and analysed by flux cytometry. Only the FITC^+, PE^+ and Cya^+ cells are counted since they represent the population of cells that migrated from the skin to GLs following the application of hapten.

[2] = system: dendritic cells generated in vitro from CD34+ precursors derived from blood from the umbilical cord; experiment: Migration of dendritic cells generated in vitro from CD34+ precursors of umbilical cord blood, activated by hapten BB; type: cell-based, human; details: for Percentage of dendritic cells generated in vitro that migrated: BB + AK100 1 μM; for inhibition at 1 µM: Homo sapiens, Dendritic cell
Description: Mononucleated cells were obtained from blood from the umbilical cord of healthy donors by centrifuging on Ficoll. The CD34+ cells were then purified by immunoselection using a specific antibody and magnetic balls (Miltenyi Biotech, Germany). The CD34+ cells were cultivated in the presence of GM-CSF (100 ng/ml), TNF-α (2.5 ng/ml) in RPMI to which 10% calf foetus serum was added for 5 days. TGF-β1, a factor that encourages differentiation of cells to the Langerhans cells […], was added on the 5th day of culture.
Cells were treated by hapten BB on the 7th day (Brandowski base, 1.17 μg/ml) for 24 h, and were then subjected to the migration test.
The results represent the percentage of cells that migrated in the presence of the different tested products. The percentage is calculated by taking the ratio of the number of cells recovered in the lower compartment of the migration chamber, to the number of cells subjected to migration. AK100 inhibits the migration of dendritic cells by 51 and 25% in experiments 1 and 2 respectively.

dendritic cells [3] = experiment: Migration of dendritic cells to draining ganglions in mouse sensitised by FITC hapten (AK100 ± OX100, Example 5); type: in vivo; details: for Migration inhibition in %: FITC
Description: FITC (Fluoresceine isothiocyanate, Sigma, St. Louis, Mo.) was diluted extemporaneously in a mixture of acetone and dibutylphthalate (1:1).
Alkanolamide AK100 and OX100 (described above) were supplied by “Laboratoires Expanscience” and formulated alone or in association in an inert vehicle compatible with a topical application [AK100 (0.05%)±OX100 (0.05%)]. The different formulations were applied on the ears of mice twice per day for 4 consecutive days. Three hours after the last application, 1.5% of FITC was applied on both ears (one treated and the other not treated (Control)).
The effect of the two molecules was evaluated in vivo in the mouse. 1.5% FITC (2×5 μl) was applied on the skin of both ears. 24 h later, the mice were sacrificed and a cellular suspension was prepared from auricular and cervical ganglions (draining ganglions, hereinafter denoted GL) or from the poplital ganglions (non-draining ganglions, negative control). The tissues were cut and cells separated by filtration (100 μm filter, Falcon; Becton Dickinson) and then washed. The cells were then centrifuged for 10 minutes at 600×g (m×s^−2) on a metrizamide gradient (14.5% in RPMI 1640; 7.5% SVF). The interface cells were retrieved, rinsed and then marked with an anti-CDS86 PE-conjugated, biot-MHC CLII mAbs AC plus streptavidine-Cya (PharMingen) and analysed by flux cytometry. Only the FITC^+, PE^+ and Cya^+ cells are counted since they represent the population of cells that migrated from the skin to GLs following the application of hapten.

[4] = system: Langerhans cells freshly isolated from human skin; experiment: Migration of Langerhans cells freshly isolated from human skin, activated by DNSB (two-compartment Matrigel chamber); type: cell-based
Description: Epidermal cell suspensions were obtained by enzymatic treatment (0.05% trypsine for 18 h at +4° C.) of fragments of normal human skin taken from plastic surgery. The suspensions obtained contain an average of 2 to 4% of LC. Obtaining suspensions containing an average of 70% of LC is based on the principle of centrifuging on density gradient (Lymphoprep™) and elimination of keratinocytes.
The basic medium chosen for the entire study was PRMI 1640 (Gibco BRL, France). The AK100 molecule supplied by Pharmascience, with a concentration of 10^−2 M in solution in DMSO (Dimethyl Sulfoxide) was diluted in RPMI-1640 and tested at 1 μM.
The sensitising agent was DNSB (Sigma Aldrich), a soluble form of DNCB (dinitro-chloro-benzene) solubilised in RPMI-BSA and used at a concentration of 50 μM.
A culture chamber system with two compartments (Falcon, Becton Dickinson, France) was used. The upper compartment is separated from the lower compartment by a membrane with 8 μm porosity, on which 50 μg/cm^2 Matrigel was deposited. […] After 18 h incubation at 37° C., the number of living cells that passed through the Matrigel and that are located in the lower compartment is counted under a microscope (the LCs are easily identifiable by their dendritic form). […]

[5] = mice sensitised by FITC hapten, topical

Row | SMILES | Migration inhibition in % (dendritic cells [1]; 0.1% topical on ears twice per day for 4 days, FITC) [%] | Inhibition of migration of DCs to LGs (dendritic cells [1]; [5]) | Inhibition of migration of dendritic cells activated by hapten BB ([2]; 1 μM) | Percentage of dendritic cells generated in vitro that migrated ([2]; Experiment 1, BB alone 17) [%] | Percentage of dendritic cells generated in vitro that migrated ([2]; Experiment 2, BB alone 24) [%] | inhibition at 1 µM ([2]; Experiment 1, 1 μM) [%] | inhibition at 1 µM ([2]; Experiment 2, 1 μM) [%] | Migration inhibition in % (dendritic cells [3]; AK100 0.05% topical on ears twice per day for 4 days) [%] | Inhibition of migration of DCs to LGs (dendritic cells [3]; [5]) | Inhibition of migration of LCs induced by DNSB ([4]; 1 μM) | LC migration index ([4]; DNSB 50 μM + AK100 1 μM, 18 h, control cells set to 1, DNSB alone 2.55) | Migration inhibition in % (dendritic cells [3]; OX100 0.05% topical on ears twice per day for 4 days) [%]
1 | CCCCCCCCCCCC(=O)NC(C)(C)CO [AK100] | 30 | significantly inhibits | significantly inhibits | 8.4 | 18 | 51 | 25 | 15 | significantly inhibits | significantly inhibits | 1.11 | –
2 | CCCCCCCCCCCC1=NC(C)(C)CO1 [OX100, 2-undecyl-4,4-dimethyl-1,3-oxazoline] | – | – | – | – | – | – | – | – | – | – | – | 15
